For the assay, the target named is T1, human cloned 5-HT6 receptors (Homo sapiens, UniProt P50406).
T1 construct: expressed in transfected cells; host or cells: HeLa cells
The assay is described as follows: 5-HT6 binding affinity, [3H]-LSD displacement. The conditions noted are these: membranes of Hela cells expressing human cloned 5-HT6 receptors; [3H]-LSD 3.0 nM; 120 minutes at room temperature.

Counter-ions that a name gives are not always drawn.

T1 sequence (P50406 whole entry): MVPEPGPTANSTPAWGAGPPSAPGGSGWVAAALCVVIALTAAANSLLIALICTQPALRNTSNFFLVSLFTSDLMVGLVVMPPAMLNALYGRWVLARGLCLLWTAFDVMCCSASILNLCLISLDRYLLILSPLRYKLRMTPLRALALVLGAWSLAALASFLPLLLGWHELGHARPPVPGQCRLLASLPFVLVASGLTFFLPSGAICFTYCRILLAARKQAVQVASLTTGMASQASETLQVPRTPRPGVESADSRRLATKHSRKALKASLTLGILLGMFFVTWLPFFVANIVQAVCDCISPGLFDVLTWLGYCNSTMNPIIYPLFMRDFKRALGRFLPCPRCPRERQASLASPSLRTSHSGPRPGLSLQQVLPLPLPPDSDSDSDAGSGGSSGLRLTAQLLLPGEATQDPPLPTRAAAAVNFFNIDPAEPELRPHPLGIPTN

The Ki is the equilibrium dissociation constant of an inhibitor or competing ligand from its target. As to `CNCCOc1cc(F)cc2c(S(=O)(=O)c3cccc4ccccc34)nn(Cc3cccc(Cl)c3)c12` [Example 107, (2-{[1-(3-chlorobenzyl)-5-fluoro-3-(1-naphthylsulfonyl)-1H-indazol-7-yl]oxy}ethyl)methylamine Hydrochloride], the Ki was > 45 nM.
`O=C(CCN1CCCCC1)Nc1ccc2c(S(=O)(=O)c3cccc4ccccc34)n[nH]c2c1` [Example 167, N-[3-(Naphthalene-1-sulfonyl)-1H-indazol-6-yl]-3-piperidin-1-yl-propionamide hydrochloride] displayed a Ki of 11 to 25 nM.
`O=S(=O)(c1cccc2ccccc12)c1n[nH]c2ccc(OCCCN3CCOCC3)cc12` [Example 25, 5-(3-Morpholin-4-yl-propoxy)-3-(naphthalene-1-sulfonyl)-1H-indazole] gave a Ki of 0.01 to 10 nM.
Regarding `O=S(=O)(c1cccc2ccccc12)c1nn(Cc2cccc(Cl)c2)c2c(OCCN3CCCCC3)cc(F)cc12` [Example 111], the Ki was > 45 nM.
On to `CNCCOc1cccc2c(S(=O)(=O)c3cccc4ccccc34)n[nH]c12` [Example 77], for which the Ki lay within 0.01 to 10 nM.
Regarding `CCNCCOc1cc(OC)cc2c(S(=O)(=O)c3cccc4ccccc34)nn(Cc3cccc(Cl)c3)c12` [Example 120], the Ki is > 45 nM.
`CN(C)CCOc1ccc2[nH]nc(S(=O)(=O)c3ccccc3)c2c1` [Example 1, [2-(3-Benzenesulfonyl-1H-indazol-5-yloxy)-ethyl]-dimethyl-amine] returned a Ki of 11 to 25 nM.
With `CNCCc1cccc2c(S(=O)(=O)c3ccccc3)n[nH]c12` [Example 173, N-Methyl-N-{2-[3-(phenylsulfonyl)-1H-indazol-7-yl]ethyl}amine trifluoroacetate] the figure was 0.01 to 10 nM; with `CC(C)NCCCOc1ccc2[nH]nc(S(=O)(=O)c3cccc4ccccc34)c2c1` [Example 22, Isopropyl-{3-[3-(naphthalene-1-sulfonyl)-1H-indazol-5-yloxy]-propyl}-amine], 0.01 to 10 nM.
Take `CC1CN(Cc2ccc3[nH]nc(S(=O)(=O)c4cccc5ccccc45)c3c2)CCN1` (centres unmarked) [Example 197]: the Ki fell in the range of 0.01 to 10 nM.
The molecule `NCCNc1cccc2c(S(=O)(=O)c3cccc4ccccc34)n[nH]c12` [Example 161, N1-[3-(Naphthalene-1-sulfonyl)-1H-indazol-7-yl]-ethane-1,2-diamine dihydrochloride] yielded a Ki of 11 to 25 nM.
For the molecule `CNCCOc1ccc2c(c1)c(S(=O)(=O)c1cccc3ccccc13)nn2C` [Example 40, Methyl-{2-[1-methyl-3-(naphthalene-1-sulfonyl)-1H-indazol-5-yloxy]-ethyl}-amine], the inhibition constant (Ki) fell in the range of 0.01 to 10 nM.
Regarding `COc1cc(OCCN(C)C)c2c(c1)c(S(=O)(=O)c1cccc3ccccc13)nn2Cc1cccc(Cl)c1` [Example 121], the Ki is > 45 nM.
Molecule `CN(C)CCCc1ccc2[nH]nc(S(=O)(=O)c3cccc4ccccc34)c2c1` [Example 182, N,N-Dimethyl-N-{3-[3-(naphthylsulfonyl)-1H-indazol-5-yl]propyl}amine hydrochloride] returned a Ki of 0.01 to 10 nM.
`CCNCCOc1ccc2c(c1)c(S(=O)(=O)c1cccc3ccccc13)nn2Cc1cccc(Cl)c1` [Example 60, {2-[1-(3-Chloro-benzyl)-3-(naphthalene-1-sulfonyl)-1H-indazol-5-yloxy]-ethyl}-ethyl-amine]: the Ki lay in the range of 11 to 25 nM.
On to `CCCCNCCOc1ccc2[nH]nc(S(=O)(=O)c3ccccc3)c2c1` [Example 7, [2-(3-Benzenesulfonyl-1H-indazol-5-yloxy)-ethyl]-butyl-amine], for which the Ki lay within 26 to 35 nM.
For the molecule `O=S(=O)(c1cccc2ccccc12)c1n[nH]c2c(OCCN3CCCCC3)cccc12` [Example 80], the Ki lay in the range of 0.01 to 10 nM.
Regarding `O=S(=O)(c1ccccc1)c1nn(Cc2cccc(Cl)c2)c2c(OCCN3CCCCC3)cccc12` [Example 87], the Ki was > 45 nM.
For `CCNCCCOc1cccc2c(S(=O)(=O)c3cccc4ccccc34)n[nH]c12` [Example 135] the value was 36 to 45 nM; for `NCCOc1cccc2c(S(=O)(=O)c3ccccc3)n[nH]c12` [Example 139], 0.01 to 10 nM.
